In ChEMBL document CHEMBL4346683 (Eur J Med Chem, 2019):
Converted amounts (≈) assume the structure as drawn. The source made the active and inactive calls. No cut-off for these calls is given here.

What was measured:
[1] = Cytotoxicity against human 293T cells assessed as reduction in cell viability incubated for 24 hrs by MTT assay; type: cell-based; conditions: HEK-293T cells
Pseudomonas aeruginosa = assay: Antibacterial activity against Pseudomonas aeruginosa ATCC 27853 assessed as inhibition of bacterial growth incubated for 24 hrs by TTC double broth dilution method; type: functional; conditions: ATCC 27853, 24 h
[2] = molecular target: T1, 3-oxoacyl-[acyl-carrier-protein] synthase 3 (Escherichia coli, UniProt C3TDZ2); assay: Inhibition of Escherichia coli FabH in presence of radiolabelled substrates and acetyl-coA by enzyme coupled FabD/FabH assay system
T1 sequence (C3TDZ2 whole entry): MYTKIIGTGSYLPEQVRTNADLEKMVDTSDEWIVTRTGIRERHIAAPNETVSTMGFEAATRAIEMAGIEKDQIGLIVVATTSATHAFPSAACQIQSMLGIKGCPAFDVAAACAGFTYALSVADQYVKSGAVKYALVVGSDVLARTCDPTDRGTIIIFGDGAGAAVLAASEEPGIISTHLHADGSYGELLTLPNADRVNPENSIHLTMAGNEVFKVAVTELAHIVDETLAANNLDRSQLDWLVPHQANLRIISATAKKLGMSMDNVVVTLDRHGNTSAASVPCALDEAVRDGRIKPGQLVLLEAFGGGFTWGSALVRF

Escherichia coli = assay: Antibacterial activity against Escherichia coli ATCC 25922 assessed as inhibition of bacterial growth incubated for 24 hrs by TTC double broth dilution method; type: functional; conditions: ATCC 25922, 24 h
[3] = Induction of hemolysis in human erythrocytes assessed as hemoglobin release incubated for 3 hrs by spectrophotometric analysis; type: cell-based; conditions: erythrocyte
Bacillus subtilis = assay: Antibacterial activity against Bacillus subtilis ATCC 530 assessed as inhibition of bacterial growth incubated for 24 hrs by TTC double broth dilution method; type: functional; conditions: ATCC 530, 24 h
[4] = test system: Xanthomonas oryzae pv. oryzae; assay: Antibacterial activity against wild type Xanthomonas oryzae pv. oryzae KACC10331 expressing FabH assessed as reduction in bacterial growth; type: functional
Staphylococcus aureus [5] = assay: Antibacterial activity against Staphylococcus aureus ATCC 25923 assessed as inhibition of bacterial growth incubated for 24 hrs by TTC double broth dilution method; type: functional; conditions: ATCC 25923, 24 h
[6] = test system: Xanthomonas oryzae pv. oryzae; assay: Antibacterial activity against wild type Xanthomonas oryzae pv. oryzae KACC10331 expressing FabH assessed as reduction in bacterial growth at 5 ug/ml; type: functional, organism-based
[7] = Inhibition of Streptococcus pyogenes FabH
[8] = Inhibition of Enterococcus faecalis FabH
Streptococcus pneumoniae = assay: Antibacterial activity against Streptococcus pneumoniae; type: functional
Enterococcus faecium = assay: Antibacterial activity against Enterococcus faecium; type: functional
Staphylococcus aureus [9] = assay: Antibacterial activity against Staphylococcus aureus; type: functional

Row | Structure (SMILES) | CC50 at 24 h [1] [µM] | MIC (Pseudomonas aeruginosa) [µg/mL] | IC50 [2] [µM] | MIC (Escherichia coli) [µg/mL] | LC30 [3] [µg/mL] | MIC (Bacillus subtilis) [µg/mL] | MIC [4] [µg/mL] | MIC (Staphylococcus aureus [5]) [µg/mL] | inhibition [6] | IC50 [7] [µM] | IC50 [8] [µM] | MIC (Streptococcus pneumoniae) [µg/mL] | MIC (Enterococcus faecium) [µg/mL] | MIC (Staphylococcus aureus [9]) [µg/mL]
1 | Cc1ccc(-c2nn(-c3ccccc3)cc2-c2nc3ccccc3n2C(=O)c2ccc(C)nc2)cc1 | 145 | 62.5 (≈ 133 µM) | 16.9 | 62.5 (≈ 133 µM) | > 10000 | 0.98 (≈ 2.09 µM) | 15.6 (≈ 33.3 µM) | 62.5 (≈ 133 µM) |  |  |  |  |  | 
2 | Cc1ccccc1C(=O)n1c(-c2cn(-c3ccccc3)nc2-c2ccc(C(F)(F)F)cc2)nc2ccccc21 | 179 | > 62.5 | 36.5 | > 62.5 | > 10000 | 62.5 (≈ 120 µM) |  | > 62.5 |  |  |  |  |  | 
3 | Cc1ccc(-c2nn(-c3ccccc3)cc2-c2nc3ccccc3n2C(=O)c2cncc(C)c2)cc1 | 155 | 62.5 (≈ 133 µM) | 9.56 | 62.5 (≈ 133 µM) | > 10000 | 7.8 (≈ 16.6 µM) |  | 62.5 (≈ 133 µM) |  |  |  |  |  | 
4 | Cc1ccc(-c2nn(-c3ccccc3)cc2-c2nc3ccccc3n2C(=O)c2cccnc2)cc1 | 189 | 62.5 (≈ 137 µM) | 18.3 | 62.5 (≈ 137 µM) | > 10000 | 0.98 (≈ 2.15 µM) |  | 31.2 (≈ 68.6 µM) |  |  |  |  |  | 
5 | Cc1ccc(C(=O)n2c(-c3cn(-c4ccccc4)nc3-c3ccc(F)cc3)nc3ccccc32)cn1 | 137 | 62.5 (≈ 132 µM) | 4.02 | 1.95 (≈ 4.12 µM) | > 10000 | 0.98 (≈ 2.07 µM) | 15.6 (≈ 33 µM) | 62.5 (≈ 132 µM) |  |  |  |  |  | 
6 | Cc1cncc(C(=O)n2c(-c3cn(-c4ccccc4)nc3-c3ccc(C(F)(F)F)cc3)nc3ccccc32)c1 | 123 | 62.5 (≈ 119 µM) | 22.9 | 62.5 (≈ 119 µM) | > 10000 | 0.98 (≈ 1.87 µM) | 7.82 (≈ 14.9 µM) | 62.5 (≈ 119 µM) | Active |  |  |  |  | 
7 | Cc1ccc(C(=O)n2c(-c3cn(-c4ccccc4)nc3-c3ccc(C(F)(F)F)cc3)nc3ccccc32)cc1 | 169 | > 62.5 | 31.8 | 62.5 (≈ 120 µM) | > 10000 | 3.9 (≈ 7.46 µM) |  | > 62.5 |  |  |  |  |  | 
8 | Cc1ccc(-c2nn(-c3ccccc3)cc2-c2nc3ccccc3n2C(=O)c2ccc(Cl)cc2)cc1 | 216 | > 62.5 | 38.2 | 62.5 (≈ 128 µM) | > 10000 | 62.5 (≈ 128 µM) |  | > 62.5 |  |  |  |  |  | 
9 | Cc1ccc(-c2nn(-c3ccccc3)cc2-c2nc3ccccc3n2C(=O)c2ccccc2C)cc1 | 176 | > 62.5 | 35.4 | 62.5 (≈ 133 µM) | > 10000 | 62.5 (≈ 133 µM) |  | > 62.5 |  |  |  |  |  | 
10 | Cc1cccc(C(=O)n2c(-c3cn(-c4ccccc4)nc3-c3ccc(F)cc3)nc3ccccc32)c1 | 148 | 31.2 (≈ 66.1 µM) | 34.1 | 62.5 (≈ 132 µM) | > 10000 | 31.2 (≈ 66.1 µM) |  | 62.5 (≈ 132 µM) |  |  |  |  |  | 
11 | Cc1ccc(C(=O)n2c(-c3cn(-c4ccccc4)nc3-c3ccc(F)cc3)nc3ccccc32)cc1 | 178 | > 62.5 | 30.3 | 62.5 (≈ 132 µM) | > 10000 | 0.98 (≈ 2.07 µM) |  | > 62.5 |  |  |  |  |  | 
12 | Cc1ccccc1C(=O)n1c(-c2cn(-c3ccccc3)nc2-c2ccc(F)cc2)nc2ccccc21 | 189 | > 62.5 | 37.2 | > 62.5 | > 10000 | 62.5 (≈ 132 µM) |  | > 62.5 |  |  |  |  |  | 
13 | Cc1ccc(-c2nn(-c3ccccc3)cc2-c2nc3ccccc3n2C(=O)c2ccccc2)cc1 | 204 | 62.5 (≈ 138 µM) | 28.2 | > 62.5 | > 10000 | 31.2 (≈ 68.8 µM) |  | > 62.5 |  |  |  |  |  | 
14 | O=C(c1ccccc1)n1c(-c2cn(-c3ccccc3)nc2-c2ccc(F)cc2)nc2ccccc21 | 180 | 62.5 (≈ 136 µM) | 22.1 | 62.5 (≈ 136 µM) | > 10000 | 7.8 (≈ 17 µM) |  | > 62.5 |  |  |  |  |  | 
15 | Cc1cncc(C(=O)n2c(-c3cn(-c4ccccc4)nc3-c3ccc(F)cc3)nc3ccccc32)c1 | 119 | 62.5 (≈ 132 µM) | 22.1 | 62.5 (≈ 132 µM) | > 10000 | 15.6 (≈ 32.9 µM) |  | 62.5 (≈ 132 µM) |  |  |  |  |  | 
16 | O=C(c1ccc(Cl)cc1)n1c(-c2cn(-c3ccccc3)nc2-c2ccc(C(F)(F)F)cc2)nc2ccccc21 | 181 | 31.2 (≈ 57.6 µM) | 39.8 | 62.5 (≈ 115 µM) | > 10000 | 62.5 (≈ 115 µM) |  | > 62.5 |  |  |  |  |  | 
17 | Cc1ccc(C(=O)n2c(-c3cn(-c4ccccc4)nc3-c3ccc(C(F)(F)F)cc3)nc3ccccc32)cn1 | 153 | 62.5 (≈ 119 µM) | 2.05 | 1.95 (≈ 3.72 µM) | > 10000 | 0.49 (≈ 0.936 µM) |  | 62.5 (≈ 119 µM) |  |  |  |  |  | 
18 | NC[C@H]1O[C@H](O[C@H]2[C@H](O)[C@@H](O[C@H]3O[C@H](CO)[C@@H](O)[C@H](N)[C@H]3O)[C@H](N)C[C@@H]2N)[C@H](N)[C@@H](O)[C@@H]1O [BEKANAMYCIN] |  | 3.9 (≈ 8.07 µM) |  | 1.95 (≈ 4.03 µM) |  | 0.98 (≈ 2.03 µM) |  | 0.98 (≈ 2.03 µM) |  |  |  |  |  | 
19 | O=C(c1ccncc1)n1c(-c2cn(-c3ccccc3)nc2-c2ccc(F)cc2)nc2ccccc21 | 151 | 62.5 (≈ 136 µM) | 33.9 | > 62.5 | > 10000 | 31.2 (≈ 68 µM) |  | 62.5 (≈ 136 µM) |  |  |  |  |  | 
20 | Cc1ccc(C(=O)n2c(-c3cn(-c4ccccc4)nc3-c3ccc(C)cc3)nc3ccccc32)cc1 | 176 | 31.2 (≈ 66.7 µM) | 3.06 | 3.9 (≈ 8.32 µM) | > 10000 | 0.98 (≈ 2.09 µM) |  | > 62.5 |  |  |  |  |  | 
21 | Cc1ccc(-c2nn(-c3ccccc3)cc2-c2nc3ccccc3n2C(=O)c2cccc(C)c2)cc1 | 195 | 62.5 (≈ 133 µM) | 33.2 | 62.5 (≈ 133 µM) | > 10000 | 31.2 (≈ 66.7 µM) |  | > 62.5 |  |  |  |  |  | 
22 | O=C(c1ccc(Cl)cc1)n1c(-c2cn(-c3ccccc3)nc2-c2ccc(F)cc2)nc2ccccc21 | 179 | > 62.5 | 36.1 | 62.5 (≈ 127 µM) | > 10000 | 62.5 (≈ 127 µM) |  | > 62.5 |  |  |  |  |  | 
23 | Cc1cccc(C(=O)n2c(-c3cn(-c4ccccc4)nc3-c3ccc(C(F)(F)F)cc3)nc3ccccc32)c1 | 154 | 31.2 (≈ 59.8 µM) | 34.9 | 62.5 (≈ 120 µM) | > 10000 | 31.2 (≈ 59.8 µM) |  | > 62.5 |  |  |  |  |  | 
24 | Cc1ccc(-c2nn(-c3ccccc3)cc2-c2nc3ccccc3n2C(=O)c2ccncc2)cc1 | 154 | 62.5 (≈ 137 µM) | 30.3 | > 62.5 | > 10000 | 31.2 (≈ 68.6 µM) |  | 62.5 (≈ 137 µM) |  |  |  |  |  | 
25 | O=C(Nc1cccc(O)c1C(=O)O)c1ccc(-c2ccccc2)c(Oc2ccccc2)c1 |  |  |  |  |  |  |  |  |  | 0.004 | 0.004 |  |  | 
26 | O=C(c1cccnc1)n1c(-c2cn(-c3ccccc3)nc2-c2ccc(C(F)(F)F)cc2)nc2ccccc21 | 158 | 62.5 (≈ 123 µM) | 15.2 | 62.5 (≈ 123 µM) | > 10000 | 1.95 (≈ 3.83 µM) | 15.6 (≈ 30.7 µM) | 62.5 (≈ 123 µM) |  |  |  |  |  | 
27 | O=C(c1ccccc1)n1c(-c2cn(-c3ccccc3)nc2-c2ccc(C(F)(F)F)cc2)nc2ccccc21 | 168 | 62.5 (≈ 123 µM) | 25.7 | 62.5 (≈ 123 µM) | > 10000 | 15.6 (≈ 30.7 µM) |  | > 62.5 |  |  |  |  |  | 
28 | O=C(c1cccnc1)n1c(-c2cn(-c3ccccc3)nc2-c2ccc(F)cc2)nc2ccccc21 | 216 | 0.49 (≈ 1.07 µM) | 1.22 | 0.98 (≈ 2.13 µM) | > 10000 | 0.98 (≈ 2.13 µM) | 0.49 (≈ 1.07 µM) | 0.98 (≈ 2.13 µM) | Active |  |  |  |  | 
29 | O=C(c1ccncc1)n1c(-c2cn(-c3ccccc3)nc2-c2ccc(C(F)(F)F)cc2)nc2ccccc21 | 135 | 62.5 (≈ 123 µM) | 32.7 | > 62.5 | > 10000 | 7.8 (≈ 15.3 µM) |  | 62.5 (≈ 123 µM) |  |  |  |  |  | 
30 | C[C@]12C[C@@]34C=CC(=O)[C@@](C)(CCC(=O)Nc5c(O)ccc(C(=O)O)c5O)[C@@H]3[C@H](C[C@@H]1C4)O2 |  |  |  |  |  |  |  |  |  |  |  | 0.5 to 1 (≈ 1.13 to 2.27 µM) | 0.5 to 1 (≈ 1.13 to 2.27 µM) | 0.5 to 1 (≈ 1.13 to 2.27 µM)
